Experimental findings from patent US9718835B2 (China Medical University Hospital, priority 2013, dated 2017) are described below.

The subject of data set [1] is KB (epidermoid carcinoma of the nasopharynx). Nature of the data set: Sulforhodamine B cytotoxicity assay, KB. The format is cell-based, human. As to conditions: Table 1; 72 h; average ± SD; read-out: IC50 KB. As to the method:
The 12 novel 1-derivatives 9a-l were evaluated for in vitro antiproliferative activity against four human tumor cell lines, KB (nasopharyngeal), A-549 (lung), DU-145 (prostate), and KBvin (MDR KB subline), by using a sulforhodamine B colorimetric assay with triplicate experiments.^30 Compounds 1 and 3 were used as controls.
The human tumor cell lines used in this manuscript were A-549 (lung carcinoma), MDA-MB-231 (triple-negative breast cancer), DU-145 (hormone-insensitive prostate cancer), KB (originally isolated from epidermoid carcinoma of the nasopharynx), KBvin (vincristine-resistant KB subline), and HCT116 (colorectal adenocarcinoma). These cell lines were obtained from the Lineberger Comprehensive Cancer Center (UNC-CH) or from ATCC (Manassas, Va.), except KBvin, which was a generous gift of Professor Y.-C. Cheng (Yale University). All cell lines were maintained and assayed in RPMI-1640 medium containing 2 mM L-glutamine and 25 mM HEPES (HyClone), supplemented with 10% heat-inactivated fetal bovine serum (HyClone), 100 μg/mL streptomycin, 100 IU/mL penicillin, and 0.25 μg/mL amphotericin B (Cellgro) in a humidified atmosphere containing 5% CO2 in air. Compound stock solutions were prepared at 10 mM in DMSO and diluted with culture medium with the final DMSO concentration ≦0.01% (v/v), a concentration without effect on cell growth. The 4-6×10^3 cells/well were cultured for 72 h with various concentrations of test compounds in 96-well plate at 37° C. […] Each assay was performed in triplicate with duplicated samples.
For orientation: In SRB staining, fixed cells bind dye roughly in proportion to their protein.

For another data set, the system named is A-549 cells. Nature of the data set: Cell cycle analysis by flow cytometry. Format: cell-based, human. The settings on record: A-549, 24 h treatment. An excerpt:
First, we determined the effect of 9a on cell cycle distribution using flow cytometry analysis. […] Because it has been shown that 1-Topo I-DNA covalent complexes enhance the transcription-dependent degradation of Topo I via a 26S proteasome pathway,^32 the effects of 9a on the expression levels of Topo I and Topo II were investigated. […] Compound 9a acts directly on Topo I and results in the accumulation of covalent Topo I-DNA complexes followed by proteasomal Topo I degradation, which is the same effect as 1 and contributes to 9a's cytotoxicity.
A-549 cells were fixed with ice-cold 70% EtOH followed by propidium iodide staining Samples were analyzed by a flow cytometer for cell cycle determination. Population of each cell cycle phase was calculated based on the ploidy (<2N as sub-G1; 2N as G1; between 2N and 4N as S; 4N as G2/M), and evaluated statistically by Student's t-test (P<0.01).

Another data set relates to ATM. Briefly: Western blot analysis of ATM phosphorylation (DNA damage response). Format: cell-based, human. As to conditions: after 0.5 h treatment. As to the method: Activation of ATM kinase was confirmed by detecting the phosphorylation of downstream effectors, Chk1, Chk2, and histone H2AX.
Cells were harvested in PBS containing proteinase inhibitors and phosphatase inhibitors, and sonicated. Whole cell lysates were separated by SDS-PAGE and transferred to Immobilon P membrane (EMD Millipore). The membrane was incubated with primary antibody followed by labeling with horseradish peroxidase (HRP)-conjugated secondary antibody (EMD Millipore). Chemilluminence substrate kit (EMD Millipore) was used for detection of membrane-bound HRP, and visualized by the Luminsence image analyzer, LAS4000 (Fuji Photo Film Co., Japan).
Antibodies to caspase-3, caspase-8, caspase-9, PARP, phospho-ATM (Ser1981), ATM, phospho-ATR (Ser428), phospho-Chk1 (Ser345), phospho-Chk2 (Thr68), Chk2, phospho-H2AX (Ser139), and phospho-p53 (Ser15) were purchased from Cell Signaling Technology. Antibodies against ATM, ATR, Chk1, and PUMA were from Santa Cruz Biotechnology. Antibodies against Topo I, Topo IIα, Topo IIβ, p53, FADD, BAX, Bcl-xL, and Bcl-2 were from BD Biosciences. Antibody to β-actin was purchased from EMD Millipore.
For orientation: A western blot detects proteins with antibodies after separation by electrophoresis.

Data set [2] is classed as in vivo, BALB/c mice. The procedure: Acute toxicity of 9a in mouse was evaluated pathologically. Sixty 8-week-old male BALB/c mice were randomized into six groups (n=10) to receive 0 (vehicle only), 30, 100, 200, or 300 mg/kg of 9a i.p. on day zero. One group was kept without treatment as a normal control. […] Histopathological evaluations included 1) glycogen deposition, inflammatory cell infiltration, and focal necrosis in liver, 2) regeneration of renal tubule, inflammatory cell infiltration, and chronic progressive nephropathy in kidney, and 3) inflammatory cell infiltration and adenoma in lung. […] Thus, the animals apparently tolerated treatment with 300 mg/kg of 9a, portending an acceptable safety profile.
Sixty 8-week-old male BALB/c mice (National Laboratory Animal Center, Taipei, Taiwan) were used to evaluate single-dose toxicity. Mice were randomly divided into six groups (n=10) and received a single i.p. injection of 9a at 0 (vehicle), 30, 100, 200 or 300 mg/kg on day 0. One group was untreated as normal control. Body weight was measured every three days for fifteen days. On the end of experimental period, all animals were euthanized by CO2 and tissues from liver, lung, kidney and spleen were weighted (data not shown). Tissues were fixed with 10% formalin and embedded in paraffin. Sections 3-5 μm in thickness were prepared for histopathological examination. Hematoxylin and eosin (H&E) stained paraffin sections were evaluated histopathologically according to the guideline described by Shackelford et al.^36 and graded the symptomatic lesions. […] Statistically significant results (P<0.05) were is shown. This study was approved by the Institutional Animal Care and Use Committee (IACUC) of China Medical University (Taichung, Taiwan), and was performed according to the institutional guidelines.

For the molecule `CC[C@@]1(OC(=O)CNC(Cc2ccc(OC)cc2)=NS(=O)(=O)c2ccc(C)cc2)C(=O)OCc2c1cc1n(c2=O)Cc2cc3ccccc3nc2-1` [Compound 9a], in data set [1], the IC50 (in general, the point on the concentration scale where inhibition reaches its midpoint) was 140 ± 18 nM. Also, in the data set with A-549 cells, the cell cycle distribution entry was “increased cell populations in S and sub-G1 phases”. In the data set on ATM, the “ATM phosphorylation at Ser1981” value is “underwent phosphorylation at Ser1981 residue”. The overt toxicity result in data set [2] (300 mg/kg i.p.) is “no overt toxicity”. The “acute toxicity (anaphylactic, allergic responses, body weight loss)” value in data set [2] (single i.p. 30, 100, 200 or 300 mg/kg, male BALB/c mice) is recorded as “no anaphylactic responses, allergic reactions, or significant body weight loss”. For the same molecule, in data set [2] (single i.p. up to 300 mg/kg, male BALB/c mice), the “histopathological evaluation of liver, spleen, kidney and lung” value is reported as “no adverse effects”.
